Patent US20250129069A1, “TRIAZOLO WRN INHIBITORS” (Nimbus Wadjet, Inc., priority 2023, published 2025)
pEC50, pIC50: −log10 of the molar value. Like-named read-outs stand apart in the source and are kept apart here.

Assays:
[1] = target: human Werner helicase (WRN, amino acids 517-1235 with L1074F point mutation) (Homo sapiens (Human), UniProt Q14191, L1074F); assay: WRN (BV08) ADP-Glo assay; assay type: biochemical; conditions: human WRN (aa 517-1235, L1074F), read-out: ADP-Glo_hWRN_IC50
In short: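 ADP-Glo luminescence read after 60 min, 25 °C reaction of 0.15 nM WRN (517-1235, L1074F, Sf9-expressed, tag removed) with 0.1 nM DNA duplex and 5 μM ATP, following 15 min compound preincubation; 20 mM Bicine pH 7.5, 1% DMSO. IC50 from 3- or 4-parameter fit of % inhibition.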

[2] = system: p21 induction in HCT 116 cells; assay: p21 induction in cells (In-Cell Western, p21/GAPDH ratio); assay type: cell-based; conditions: 24 h compound incubation, read-out: p21_EC50
In short: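 EC50 values come from nonlinear fits of percent activation, defined by the 800/700 nm p21-to-GAPDH ratio scaled between DMSO (low) and internal WRN inhibitor (high) controls. In-Cell Western read after 24 h compound exposure of HCT 116 cells at 37° C. Duplicate 11-point series, 2-fold steps, usually starting at 10 μM.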

human Werner helicase (WRN, amino acids 517-1235 with L1074F point mutation), sequence (Q14191 other isoform, or with tags, fused parts or gaps L1074F (already in the parent)): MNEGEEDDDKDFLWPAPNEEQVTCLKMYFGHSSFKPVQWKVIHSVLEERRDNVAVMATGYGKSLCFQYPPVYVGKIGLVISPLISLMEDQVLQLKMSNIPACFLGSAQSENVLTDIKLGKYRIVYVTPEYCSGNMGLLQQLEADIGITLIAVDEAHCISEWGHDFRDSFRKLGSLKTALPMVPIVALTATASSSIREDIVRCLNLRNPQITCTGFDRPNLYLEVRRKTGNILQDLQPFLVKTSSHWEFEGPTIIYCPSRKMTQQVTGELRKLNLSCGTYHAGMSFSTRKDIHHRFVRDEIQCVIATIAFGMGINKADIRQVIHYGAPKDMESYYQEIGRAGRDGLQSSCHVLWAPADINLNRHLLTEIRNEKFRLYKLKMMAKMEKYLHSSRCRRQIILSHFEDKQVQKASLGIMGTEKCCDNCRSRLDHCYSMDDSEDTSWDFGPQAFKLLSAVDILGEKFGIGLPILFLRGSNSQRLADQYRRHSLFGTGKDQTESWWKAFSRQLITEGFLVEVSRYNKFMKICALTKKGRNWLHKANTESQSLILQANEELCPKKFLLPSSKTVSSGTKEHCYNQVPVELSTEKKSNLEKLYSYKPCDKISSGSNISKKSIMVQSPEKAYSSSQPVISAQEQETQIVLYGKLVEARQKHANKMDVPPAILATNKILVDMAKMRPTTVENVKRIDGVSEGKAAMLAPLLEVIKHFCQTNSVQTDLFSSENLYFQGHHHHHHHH

SMILES	pIC50 [1]	pEC50 ([2]; Homo sapiens)	pEC50 [2]
CCc1c(N2CCN(C(=O)c3cccc4c3OCCN4C)[C@H]3CC[C@@H]32)c(=O)c2nn(C3=CCOCC3)nc2n1CC(=O)NC12CC(C3CC3)(C1)C2 [Compound I-205, N-{3-cyclopropylbicyclo[1.1.1]pentan-1-yl}-2-[2-(3,6-dihydro-2H-pyran-4-yl)-5-ethyl-6-[(1S,6S)-5-(4-methyl-3,4-dihydro-2H-1,4-benzoxazine-8-carbonyl)-2,5-diazabicyclo[4.2.0]octan-2-yl]-7-oxo-2H,4H,7H-[1,2,3]triazolo[4,5-b]pyridin-4-yl]acetamide]	7.30 to 8.30	5.70 to 6.30	
CCc1c(N2CCN(C(=O)c3ncnc(C)c3O)[C@H]3CC[C@@H]32)c(=O)c2nn(-c3ccnc(OC)c3)nc2n1CC(=O)NC1(C)CC2(CCC2)C1 [Compound I-87, 2-{5-ethyl-6-[(1S,6S)-5-(5-hydroxy-6-methylpyrimidine-4-carbonyl)-2,5-diazabicyclo[4.2.0]octan-2-yl]-2-(2-methoxypyridin-4-yl)-7-oxo-2H,4H,7H-[1,2,3]triazolo[4,5-b]pyridin-4-yl}-N-{2-methylspiro[3.3]heptan-2-yl}acetamide]	7.30 to 8.30	≥ 6.30	
CCc1c(N2CCN(C(=O)c3c(O)ccnc3OC)CC2)c(=O)c2nn(-c3ccnc(OC)c3)nc2n1CC(=O)NC12CC(C(F)(F)F)(C1)C2 [Compound I-143, 2-{5-ethyl-6-[4-(4-hydroxy-2-methoxypyridine-3-carbonyl)piperazin-1-yl]-2-(2-methoxypyridin-4-yl)-7-oxo-2H,4H,7H-[1,2,3]triazolo[4,5-b]pyridin-4-yl}-N-[3-(trifluoromethyl)bicyclo[1.1.1]pentan-1-yl]acetamide]	7.30 to 8.30	5.70 to 6.30	
CCc1c(N2CCN(C(=O)c3ncnc(C)c3O)[C@H]3CC[C@@H]32)c(=O)c2nn(-c3ccnc(OC)c3)nc2n1CC(=O)Nc1ccc(C(F)(F)F)cc1F [Compound I-126, 2-{5-ethyl-6-[(1S,6S)-5-(5-hydroxy-6-methylpyrimidine-4-carbonyl)-2,5-diazabicyclo[4.2.0]octan-2-yl]-2-(2-methoxypyridin-4-yl)-7-oxo-2H,4H,7H-[1,2,3]triazolo[4,5-b]pyridin-4-yl}-N-[2-fluoro-4-(trifluoromethyl)phenyl]acetamide]	≥ 8.30	≥ 6.30	
CCc1c(N2CCN(C(=O)c3ncnc(C)c3O)[C@H]3CC[C@@H]32)c(=O)c2nn(-c3ccnc(OC)c3)nc2n1CC(=O)NC12CC(C(C)C)(C1)C2 [Compound I-14, 2-(5-ethyl-6-((1S,6S)-5-(5-hydroxy-6-methylpyrimidine-4-carbonyl)-2,5-diazabicyclo[4.2.0]octan-2-yl)-2-(2-methoxypyridin-4-yl)-7-oxo-2,7-dihydro-4H-[1,2,3]triazolo[4,5-b]pyridin-4-yl)-N-(3-isopropylbicyclo[1.1.1]pentan-1-yl)acetamide]	7.30 to 8.30	≥ 6.30	
CCc1c(N2CCN(C(=O)c3c(OC)ncc(C)c3O)CC2)c(=O)c2nn(-c3ccnc(OC)c3)nc2n1CC(=O)NC12CC(C(F)(F)F)(C1)C2 [Compound I-128, 2-{5-ethyl-6-[4-(4-hydroxy-2-methoxy-5-methylpyridine-3-carbonyl)piperazin-1-yl]-2-(2-methoxypyridin-4-yl)-7-oxo-2H,4H,7H-[1,2,3]triazolo[4,5-b]pyridin-4-yl}-N-[3-(trifluoromethyl)bicyclo[1.1.1]pentan-1-yl]acetamide]	7.30 to 8.30	≥ 6.30	
CCc1c(N2CCN(C(=O)c3cnccc3OC)[C@H]3CC[C@@H]32)c(=O)c2nn(C3=CCOCC3)nc2n1CC(=O)NC12CC(C(C)C)(C1)C2 [Compound I-203, 2-[2-(3,6-dihydro-2H-pyran-4-yl)-5-ethyl-6-[(1S,6S)-5-(4-methoxypyridine-3-carbonyl)-2,5-diazabicyclo[4.2.0]octan-2-yl]-7-oxo-2H,4H,7H-[1,2,3]triazolo[4,5-b]pyridin-4-yl]-N-[3-(propan-2-yl)bicyclo[1.1.1]pentan-1-yl]acetamide]	7.30 to 8.30	5.70 to 6.30	
CCc1c(N2CCN(C(=O)c3c(OC)ncc(C)c3O)CC2)c(=O)c2nn(C3=CCOCC3)nc2n1CC(=O)NC12CC(C(C)C)(C1)C2 [Compound I-111, 2-[2-(3,6-dihydro-2H-pyran-4-yl)-5-ethyl-6-[4-(4-hydroxy-2-methoxy-5-methylpyridine-3-carbonyl)piperazin-1-yl]-7-oxo-2H,4H,7H-[1,2,3]triazolo[4,5-b]pyridin-4-yl]-N-[3-(propan-2-yl)bicyclo[1.1.1]pentan-1-yl]acetamide]	7.30 to 8.30	≥ 6.30	
CCc1c(N2CCN(C(=O)c3[nH]cnc3C#N)[C@H]3CC[C@@H]32)c(=O)c2nn(C3=CCOCC3)nc2n1CC(=O)NC12CC(C(C)C)(C1)C2 [Compound I-170, 2-{6-[(1S,6S)-5-(4-cyano-1H-imidazole-5-carbonyl)-2,5-diazabicyclo[4.2.0]octan-2-yl]-2-(3,6-dihydro-2H-pyran-4-yl)-5-ethyl-7-oxo-2H,4H,7H-[1,2,3]triazolo[4,5-b]pyridin-4-yl}-N-[3-(propan-2-yl)bicyclo[1.1.1]pentan-1-yl]acetamide]	7.30 to 8.30	< 5.30	
CCc1c(N2CCN(C(=O)c3c(O)ccc4ncoc34)CC2)c(=O)c2nn(C(C)C)nc2n1CC(=O)Nc1ccc(C(F)(F)F)cc1Cl [Compound I-139, N-[2-chloro-4-(trifluoromethyl)phenyl]-2-{5-ethyl-6-[4-(6-hydroxy-1,3-benzoxazole-7-carbonyl)piperazin-1-yl]-7-oxo-2-(propan-2-yl)-2H,4H,7H-[1,2,3]triazolo[4,5-b]pyridin-4-yl}acetamide]	≥ 8.30	≥ 6.30	
CCc1c(N2CCN(C(=O)c3c(OC)ccc[n+]3[O-])CC2)c(=O)c2nn(C3=CCOCC3)nc2n1CC(=O)Nc1ccc(C(F)(F)F)cc1Cl [Compound I-214, 2-{4-[4-({[2-chloro-4-(trifluoromethyl)phenyl]carbamoyl}methyl)-2-(3,6-dihydro-2H-pyran-4-yl)-5-ethyl-7-oxo-2H,4H,7H-[1,2,3]triazolo[4,5-b]pyridin-6-yl]piperazine-1-carbonyl}-3-methoxypyridin-1-ium-1-olate]	7.30 to 8.30	< 5.30	
CCc1c(N2CCN(C(=O)c3c(O)ccc4ncoc34)CC2)c(=O)c2nn(-c3ccnc(OC)c3)nc2n1CC(=O)NC12CC(C(F)(F)F)(C1)C2 [Compound I-3, 2-(5-ethyl-6-(4-(6-hydroxybenzo[d]oxazole-7-carbonyl)piperazin-1-yl)-2-(2-methoxypyridin-4-yl)-7-oxo-2,7-dihydro-4H-[1,2,3]triazolo[4,5-b]pyridin-4-yl)-N-(3-(trifluoromethyl)bicyclo[1.1.1]pentan-1-yl)acetamide]	7.30 to 8.30		≥ 6.30

Other lines, results leading:

pIC50 [1]	pEC50 ([2]; Homo sapiens)	pEC50 [2]	SMILES
7.30 to 8.30	5.70 to 6.30		CCc1c(C2=CCN(C(=O)c3ncnc(C)c3O)C[C@@H]2C)c(=O)c2nn(-c3ccnc(OC)c3)nc2n1CC(=O)NC12CC(C(C)C)(C1)C2 (single isomer, unassigned) [Compound I-81]
7.30 to 8.30	≥ 6.30		CCc1c(N2CCN(C(=O)c3c(OC)ncc(C)c3O)[C@H]3CC[C@@H]32)c(=O)c2nn(C3=CCOCC3)nc2n1CC(=O)NC12CC(C(C)C)(C1)C2 [Compound I-24, 2-(2-(3,6-dihydro-2H-pyran-4-yl)-5-ethyl-6-((1S,6S)-5-(4-hydroxy-2-methoxy-5-methylnicotinoyl)-2,5-diazabicyclo[4.2.0]octan-2-yl)-7-oxo-2,7-dihydro-4H-[1,2,3]triazolo[4,5-b]pyridin-4-yl)-N-(3-isopropylbicyclo[1.1.1]pentan-1-yl)acetamide]
7.30 to 8.30	5.70 to 6.30		CCc1c(N2CCN(C(=O)c3ncnc(C)c3O)CC2)c(=O)c2nn(-c3ccnc(OC)c3)nc2n1CC(=O)NC12CC(C(F)(F)F)(C1)C2 [Compound I-151, 2-{5-ethyl-6-[4-(5-hydroxy-6-methylpyrimidine-4-carbonyl)piperazin-1-yl]-2-(2-methoxypyridin-4-yl)-7-oxo-2H,4H,7H-[1,2,3]triazolo[4,5-b]pyridin-4-yl}-N-[3-(trifluoromethyl)bicyclo[1.1.1]pentan-1-yl]acetamide]
7.30 to 8.30	5.70 to 6.30		CCc1c(N2CCN(C(=O)c3c(N)ncnc3OC)[C@H]3CC[C@@H]32)c(=O)c2nn(C3=CCOCC3)nc2n1CC(=O)NC12CC(C3CC3)(C1)C2 [Compound I-193, 2-{6-[(1S,6S)-5-(4-amino-6-methoxypyrimidine-5-carbonyl)-2,5-diazabicyclo[4.2.0]octan-2-yl]-2-(3,6-dihydro-2H-pyran-4-yl)-5-ethyl-7-oxo-2H,4H,7H-[1,2,3]triazolo[4,5-b]pyridin-4-yl}-N-{3-cyclopropylbicyclo[1.1.1]pentan-1-yl}acetamide]
7.30 to 8.30	< 5.30		CCc1c(N2CCN(C(=O)c3ccccc3C(=O)O)CC2)c(=O)c2nn(-c3ccnc(OC)c3)nc2n1CC(=O)NC12CC(C3CC3)(C1)C2 [Compound I-161, 2-(4-{4-[{{3-cyclopropylbicyclo[1.1.1]pentan-1-yl}carbamoyl)methyl]-5-ethyl-2-(2-methoxypyridin-4-yl)-7-oxo-2H,4H,7H-[1,2,3]triazolo[4,5-b]pyridin-6-yl}piperazine-1-carbonyl)benzoic acid]
